Results on two substances are retold here after US20080194507A1, “Defibrotide An/Or Oligodeoxyribonucleotides For Treating Angiogenesis-Dependent Tumors” (priority 2005, published 2008).

Assay [1] has as its system transdifferentiating ELC (TuDC-ELC). As to the kind of experiment: Matrigel tube formation assay of TuDC-ELC. The format is cell-based, human. The note with it: for tube formation of TuDC-ELC in Matrigel: 10 μg/mL, 7 days, clinical and subclinical concentrations. The text has this: We have recently developed a model for an alternative pathway of tumor angiogenesis. […] These endothelial-like cells (ELC) can transdifferentiate from tumor-associated dendritic cells under specific culture conditions (11). Briefly, monocytes are elutriated from leukapheresis products of healthy human blood donors and cultured in the presence of granulocyte-macrophage-colony stimulating factor (GM-CSF) and interleukin 4 (IL-4) to stimulate the differentiation of dendritic cells (DC). In addition, cells are treated with a cocktail specifically released by tumor cells (M-CSF, IL.6 and lactate, Gottfried et al., manucript submitted) to promote the outgrowth of tumor-associated dendritic cells (TuDC).
In addition, they are able to form tube-like structures in Matrigel™, an in vitro assay of angiogenesis.
(§1) The Matrigel™ assay is one of the most popular and widely used in vitro angiogenesis assays (22). Matrigel™ is a semisolid synthetic mixture of extracellular matrix proteins which simulate the matrix that physiologically exist beneath the endothelial cell wall of a blood vessel. When the cells of question are seeded onto this matrix in microscopic chamber slides, they are activated to form tubular structures in 3-7 days, but only in the case that they have an endothelial phenotype. Therefore, this assay is suitable to show the potential capacity of cells to give rise to a tumor vasculature.
(§2) TuDC-ELC and mature, differentiated endothelial cells, [human umbilical vene (HUVEC) or microvascular endothelial cells (HMEC) as “stable” controls] were incubated in the presence or absence of oligotide or Defibrotide (10 μg/mL each) for 7 days.
By the help of a complimentary software from the NIH (Image J, http://rsb.info.nih.gov/ij/), we are able to quantify these effects, the total length of tubes and the area of the photograph are assessed, the microvascular density (MVD) is then given in total length/area [pix-1].

For assay [2], the system named is human umbilical vene (HUVEC) endothelial cells. The assay is described as follows: Matrigel tube formation assay of HUVEC. The format is cell-based. The note with it: single addition, 10 μg/mL, 7 days. The method, then:
as §1, §2

Assay [3] deals with microvascular endothelial cells (HMEC). As to the kind of experiment: Matrigel tube formation assay of HMEC. The format is cell-based, human. The note with it: single addition, 10 μg/mL, 7 days. The method, then:
as §1, §2

The next assay relates to human gastric carcinoma. As to the kind of experiment: Dorsal skin chamber assay, human gastric carcinoma mouse model (Xenograft system). The note with it: first data; treated vs control tumors. The format is in vivo. The text has this: We are currently performing a dorsal skin chamber assay (14) that investigates the effect of defibrotide in a highly vascularized human gastric carcinoma mouse model (Xenograft system). […] This set of experiments will be reproduced in due time.
For orientation: A xenograft is tissue or cells of one species grown in another, often human tumour cells in immunodeficient mice.

Assay [4] deals with activated p70S6 kinase (p-p70S6). As to the kind of experiment: Western Blot analyses of activated p70S6 kinase. The format is cell-based. The note with it: preliminary evidence. A general note: Immunoblotting shows a protein as a band on a membrane.
Assay [5] relates to human microvascular endothelial cells. As to the kind of experiment: Angiogenesis assay of microvascular endothelial cells vascularizing through a layer of dermal fibroblasts. The format is cell-based. Here is the method: The aortic ring assay investigates macrovascular endothelial cells. But often, the tumor vasculature consists of microvascular endothelial cells. Therefore, a third in vitro angiogenesis assay was performed on the basis of microvascular endothelial cells vascularizing through a layer of dermal fibroblasts after 9-11 days of culture. These vessel-like structures can subsequently be visualized by staining for CD31 and vWF.

As to oligotide, the “tube formation of TuDC-ELC in Matrigel” value in assay [1] is “inhibit tube formation”.

Consider defibrotide, for which the tube formation potential entry in assay [2] and in assay [3] was “not affected” each time. In the assay with human gastric carcinoma, the “microvascular density (MVD) of tumors” value was “lower than that of control tumors”. For the same substance, in assay [4], the “effect on activated p70S6 kinase (p-p70S6)” value is reported as “downregulating effect”. In assay [5] (daily application, 9-11 days of culture, CD31 and vWF staining), the “angiogenesis of human microvascular endothelial cells” value is “block angiogenesis”. Moreover, in assay [5] (human microvascular endothelial cells, FIGS. 3A and B), the most effective concentration result is “around 10 μg/mL”. The “tube formation of TuDC-ELC in Matrigel” value in assay [1] was “inhibit tube formation”. Moreover, the “microvascular density (MVD), total length/area” value in assay [1] (TuDC-ELC, p=0.02, TTEST, FIG. 1B) is “downregulates”.
